Literature values in patent US20160279255A1, “THERAPEUTIC COMPOSITIONS INCLUDING MODULATORS OF deltaPKC AND/OR epsilonPKC, AND USES THEREOF” (priority 2014, published 2016).

Tested on: several mammalian cell types
Conditions: energy-independent manner; cited from earlier work

For 2′,6′-Dmt-D-Arg-Phe-Lys-NH2, the “penetration of the plasma membrane” value is listed as “readily penetrates the plasma membrane”.
